Data from ChEMBL document CHEMBL1201862, “PubChem BioAssay data set” (2004).
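Results reflect a 48-hour exposure of cells in 96-well plates to compound at five concentrations. GI50: concentration for 50% inhibition of growth.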 Activity calls are given as the source filed them. No stated cut-off is given here; in the data, active = GI50 up to about 1.1 µM and inactive = higher.

How the values were obtained:
Test in all cases: NCI tumour cell line growth inhibition, 48 h
RPMI-8226 = system: RPMI-8226
NCI-H460 = system: NCI-H460
MCF7 = system: MCF7
EKVX = system: EKVX
IGROV-1 = system: IGROV-1
786-0 = system: 786-0
SK-MEL-2 = system: SK-MEL-2
U-251 = system: U-251
RXF 393 = system: RXF 393
OVCAR-8 = system: OVCAR-8
HCC 2998 = system: HCC 2998
ACHN = system: ACHN
OVCAR-4 = system: OVCAR-4
SF-295 = system: SF-295
HOP-62 = system: HOP-62
MDA-N = system: MDA-N
SK-OV-3 = system: SK-OV-3
M14 = system: M14
NCI/ADR-RES = system: NCI/ADR-RES
SF-268 = system: SF-268
OVCAR-3 = system: OVCAR-3
HCT-116 = system: HCT-116
COLO 205 = system: COLO 205
SK-MEL-5 = system: SK-MEL-5
NCI-H522 = system: NCI-H522
BT-549 = system: BT-549
SR = system: SR
DU-145 = system: DU-145
SK-MEL-28 = system: SK-MEL-28
Hs-578T = system: Hs-578T
T47D = system: T47D
TK-10 = system: TK-10
SNB-19 = system: SNB-19
SW-620 = system: SW-620
K562 = system: K562
NCI-H23 = system: NCI-H23
Malme-3M = system: Malme-3M
A549 = system: A549
SF-539 = system: SF-539
CCRF-CEM = system: CCRF-CEM
MOLT-4 = system: MOLT-4
LOX IMVI = system: LOX IMVI
UO-31 = system: UO-31
NCI-H226 = system: NCI-H226
UACC-257 = system: UACC-257
SN12C = system: SN12C
CAKI-1 = system: CAKI-1
HCT-15 = system: HCT-15
MDA-MB-231 = system: MDA-MB-231
PC-3 = system: PC-3
HT-29 = system: HT-29
OVCAR-5 = system: OVCAR-5
MDA-MB-435 = system: MDA-MB-435
KM12 = system: KM12
SNB-75 = system: SNB-75
UACC-62 = system: UACC-62
A498 = system: A498
HL-60 = system: HL-60
HOP-92 = system: HOP-92

N#Cc1nc(CCCN2C(=O)c3ccccc3C2=O)oc1N
GI50 (RPMI-8226): > 100 µM (inactive)
GI50 (NCI-H460): > 100 µM (inactive)
GI50 (MCF7): > 100 µM (inactive)
GI50 (EKVX): > 100 µM (inactive)
GI50 (IGROV-1): > 100 µM (inactive)
GI50 (786-0): > 100 µM (inactive)
GI50 (SK-MEL-2): > 100 µM (inactive)
GI50 (U-251): > 100 µM (inactive)
GI50 (RXF 393): > 100 µM (inactive)
GI50 (OVCAR-8): > 100 µM (inactive)
GI50 (HCC 2998): > 100 µM (inactive)
GI50 (ACHN): > 100 µM (inactive)
GI50 (OVCAR-4): > 100 µM (inactive)
GI50 (SF-295): > 100 µM (inactive)
GI50 (HOP-62): > 100 µM (inactive)
GI50 (MDA-N): > 100 µM (inactive)
GI50 (SK-OV-3): > 100 µM (inactive)
GI50 (M14): > 100 µM (inactive)
GI50 (NCI/ADR-RES): > 100 µM (inactive)
GI50 (SF-268): > 100 µM (inactive)
GI50 (OVCAR-3): > 100 µM (inactive)
GI50 (HCT-116): > 100 µM (inactive)
GI50 (COLO 205): > 100 µM (inactive)
GI50 (SK-MEL-5): > 100 µM (inactive)
GI50 (NCI-H522): > 100 µM (inactive)
GI50 (BT-549): > 100 µM (inactive)
GI50 (SR): > 100 µM (inactive)
GI50 (DU-145): > 100 µM (inactive)
GI50 (SK-MEL-28): > 100 µM (inactive)
GI50 (Hs-578T): > 100 µM (inactive)
GI50 (T47D): > 100 µM (inactive)
GI50 (TK-10): > 100 µM (inactive)
GI50 (SNB-19): > 100 µM (inactive)
GI50 (SW-620): > 100 µM (inactive)
GI50 (K562): > 100 µM (inactive)
GI50 (NCI-H23): > 100 µM (inactive)
GI50 (Malme-3M): > 100 µM (inactive)
GI50 (A549): > 100 µM (inactive)
GI50 (SF-539): > 100 µM (inactive)
GI50 (CCRF-CEM): > 100 µM (inactive)
GI50 (MOLT-4): > 100 µM (inactive)
GI50 (LOX IMVI): > 100 µM (inactive)
GI50 (UO-31): > 100 µM (inactive)
GI50 (NCI-H226): > 100 µM (inactive)
GI50 (UACC-257): > 100 µM (inactive)
GI50 (SN12C): > 100 µM (inactive)
GI50 (CAKI-1): > 100 µM (inactive)
GI50 (HCT-15): > 100 µM
GI50 (MDA-MB-231): > 100 µM (inactive)
GI50 (PC-3): > 100 µM (inactive)
GI50 (HT-29): > 100 µM (inactive)
GI50 (OVCAR-5): > 100 µM (inactive)
GI50 (MDA-MB-435): > 100 µM (inactive)

CCC1(N)C(=O)OCc2c1cc1n(c2=O)Cc2cc3ccccc3nc2-1 (stereo not given)
GI50 (KM12): 46.1 µM (inactive)
GI50 (RPMI-8226): 32.7 µM (inactive)
GI50 (NCI-H460): 0.47 µM (active)
GI50 (MCF7): 2.14 µM (inactive)
GI50 (EKVX): 51.4 µM (inactive)
GI50 (IGROV-1): 6.56 µM (inactive)
GI50 (786-0): 3.74 µM (inactive)
GI50 (SK-MEL-2): > 85.7 µM (inactive)
GI50 (U-251): 6.73 µM (inactive)
GI50 (RXF 393): 13.4 µM (inactive)
GI50 (OVCAR-8): 7.71 µM (inactive)
GI50 (HCC 2998): 38.4 µM (inactive)
GI50 (ACHN): 3.73 µM (inactive)
GI50 (OVCAR-4): 50 µM (inactive)
GI50 (SF-295): 5.31 µM (inactive)
GI50 (HOP-62): 5.69 µM (inactive)
GI50 (MDA-N): 17.7 µM (inactive)
GI50 (SK-OV-3): > 100 µM (inactive)
GI50 (M14): 7.41 µM (inactive)
GI50 (NCI/ADR-RES): 5.02 µM (inactive)
GI50 (SF-268): 5.7 µM (inactive)
GI50 (OVCAR-3): > 55.7 µM (inactive)
GI50 (HCT-116): 4.67 µM (inactive)
GI50 (SNB-75): 8.36 µM (inactive)
GI50 (COLO 205): 30.5 µM (inactive)
GI50 (UACC-62): 2.75 µM (inactive)
GI50 (SK-MEL-5): 5.21 µM (inactive)
GI50 (NCI-H522): 9.51 µM (inactive)
GI50 (A498): 4.74 µM (inactive)
GI50 (HL-60): 1.74 µM (inactive)
GI50 (BT-549): 30.5 µM (inactive)
GI50 (DU-145): 2.65 µM (inactive)
GI50 (SK-MEL-28): > 93.1 µM (inactive)
GI50 (Hs-578T): > 100 µM (inactive)
GI50 (T47D): 2.35 µM (inactive)
GI50 (TK-10): > 74.3 µM (inactive)
GI50 (SNB-19): 7.67 µM (inactive)
GI50 (SW-620): 25.7 µM (inactive)
GI50 (K562): 18.9 µM (inactive)
GI50 (NCI-H23): 4.56 µM (inactive)
GI50 (Malme-3M): 44.3 µM (inactive)
GI50 (A549): 6.58 µM (inactive)
GI50 (SF-539): 4.04 µM (inactive)
GI50 (CCRF-CEM): 0.859 µM (active)
GI50 (MOLT-4): 0.871 µM (active)
GI50 (LOX IMVI): 4.78 µM (inactive)
GI50 (UO-31): 3.42 µM (inactive)
GI50 (NCI-H226): 6.08 µM (inactive)
GI50 (UACC-257): 36.6 µM (inactive)
GI50 (SN12C): 3.99 µM (inactive)
GI50 (CAKI-1): 2.84 µM (inactive)
GI50 (HOP-92): 35.4 µM (inactive)
GI50 (HCT-15): 32.7 µM
GI50 (MDA-MB-231): 77.4 µM (inactive)
GI50 (PC-3): 15.2 µM (inactive)
GI50 (HT-29): 15 µM (inactive)
GI50 (OVCAR-5): 44.5 µM (inactive)
GI50 (MDA-MB-435): 54.6 µM (inactive)

C/C(=N/O)c1cccc(Nc2nc3ccc(Cl)cc3c3[nH]c4ccccc4c23)c1
GI50 (KM12): 1.38 µM (inactive)
GI50 (RPMI-8226): 1.66 µM (inactive)
GI50 (NCI-H460): 1.14 µM (inactive)
GI50 (MCF7): 0.935 µM (active)
GI50 (IGROV-1): 1.5 µM (inactive)
GI50 (786-0): 1.36 µM (inactive)
GI50 (SK-MEL-2): 1.93 µM (inactive)
GI50 (U-251): 2.44 µM (inactive)
GI50 (RXF 393): 1.67 µM (inactive)
GI50 (OVCAR-8): 1.93 µM (inactive)
GI50 (ACHN): 0.929 µM (active)
GI50 (OVCAR-4): 1.9 µM (inactive)
GI50 (SF-295): 1.41 µM (inactive)
GI50 (HOP-62): 2.77 µM (inactive)
GI50 (MDA-N): 1.71 µM (inactive)
GI50 (SK-OV-3): 3.42 µM (inactive)
GI50 (M14): 1.82 µM (inactive)
GI50 (NCI/ADR-RES): 1.92 µM (inactive)
GI50 (SF-268): 1.53 µM (inactive)
GI50 (OVCAR-3): 0.192 µM (active)
GI50 (HCT-116): 0.205 µM (active)
GI50 (SNB-75): < 0.01 µM (active)
GI50 (COLO 205): 1.77 µM (inactive)
GI50 (UACC-62): 1.83 µM (inactive)
GI50 (SK-MEL-5): 1.18 µM (inactive)
GI50 (NCI-H522): 1.12 µM (active)
GI50 (HL-60): 3.07 µM (inactive)
GI50 (BT-549): 2.93 µM (inactive)
GI50 (SR): 1.24 µM (inactive)
GI50 (DU-145): 0.261 µM (active)
GI50 (SK-MEL-28): 2.12 µM (inactive)
GI50 (Hs-578T): 2.65 µM (inactive)
GI50 (T47D): 1.58 µM (inactive)
GI50 (TK-10): 2.32 µM (inactive)
GI50 (SNB-19): 2.88 µM (inactive)
GI50 (SW-620): 1.06 µM (active)
GI50 (K562): 2.02 µM (inactive)
GI50 (NCI-H23): 1.92 µM (inactive)
GI50 (A549): 1.6 µM (inactive)
GI50 (SF-539): 3.33 µM (inactive)
GI50 (CCRF-CEM): 1.34 µM (inactive)
GI50 (MOLT-4): 0.242 µM (active)
GI50 (LOX IMVI): 1.91 µM (inactive)
GI50 (UO-31): 2.33 µM (inactive)
GI50 (NCI-H226): 2.69 µM (inactive)
GI50 (UACC-257): 3.53 µM (inactive)
GI50 (SN12C): 2.51 µM (inactive)
GI50 (CAKI-1): 2.24 µM (inactive)
GI50 (HCT-15): 1.44 µM
GI50 (MDA-MB-231): 2.59 µM (inactive)
GI50 (PC-3): 1.79 µM (inactive)
GI50 (HT-29): 1.23 µM (inactive)
GI50 (OVCAR-5): 2.07 µM (inactive)
GI50 (MDA-MB-435): 1.81 µM (inactive)
